Data on 6 compounds can be found in ChEMBL document CHEMBL5724914, “Linking interpersonal differences in gut microbiota composition and drug biotransformation activity” (2024).

SMILES strings stand for the structures.

For data set [1] the following is noted: human gut metagenome, 24 h, 2 µM.
The conditions of data set [2]: human gut metagenome, 24 h, 2 µM. This is another data set of the same source.
A short description of data set [3]: The drug is tested on WLS-220 corresponding to human gut metagenome with ENA study accession number: PRJEB37062 and ENA sample accession number: ERS12561769 for biotransformation under anaerobic condition. The drug concentrations were measured over 9 timepoints collected between 0 and 24 hours of incubation by liquid-chromatography-coupled mass spectrometry (LC–MS). The following applies: 2 µM.

Data set [4] can be described thus: The drug is tested on Z-009 corresponding to pig gut metagenome with ENA study accession number: PRJEB37062 and ENA sample accession number: ERS12561809 for biotransformation under anaerobic condition. The drug concentrations were measured over 9 timepoints collected between 0 and 24 hours of incubation by liquid-chromatography-coupled mass spectrometry (LC–MS). The following applies: 2 µM.

The conditions of data set [5]: human gut metagenome, 24 h, 2 µM. This is another data set of the same source.
Data set [6] can be described thus: The drug is tested on Z-008 corresponding to metagenome with ENA study accession number: PRJEB37062 and ENA sample accession number: ERS12561808 for biotransformation under anaerobic condition. The drug concentrations were measured over 9 timepoints collected between 0 and 24 hours of incubation by liquid-chromatography-coupled mass spectrometry (LC–MS). Particulars: 2 µM.

A short description of data set [7]: The drug is tested on WLS-006 corresponding to human gut metagenome with ENA study accession number: PRJEB37062 and ENA sample accession number: ERS12561741 for biotransformation under anaerobic condition. The drug concentrations were measured over 9 timepoints collected between 0 and 24 hours of incubation by liquid-chromatography-coupled mass spectrometry (LC–MS). Particulars: 2 µM.

Data set [8] is described as follows: The drug is tested on WLS-170 corresponding to human gut metagenome with ENA study accession number: PRJEB37062 and ENA sample accession number: ERS12561762 for biotransformation under anaerobic condition. The drug concentrations were measured over 9 timepoints collected between 0 and 24 hours of incubation by liquid-chromatography-coupled mass spectrometry (LC–MS). Particulars: 2 µM.

For data set [9] the following is noted: human gut metagenome, 24 h, 2 µM. The source holds these as a separate data set.
The nature of data set [10]: The drug is tested on Z-023 corresponding to metagenome with ENA study accession number: PRJEB37062 and ENA sample accession number: ERS12561822 for biotransformation under anaerobic condition. The drug concentrations were measured over 9 timepoints collected between 0 and 24 hours of incubation by liquid-chromatography-coupled mass spectrometry (LC–MS). Particulars: 2 µM.

A short description of data set [11]: The drug is tested on WLS-370 corresponding to human gut metagenome with ENA study accession number: PRJEB37062 and ENA sample accession number: ERS12561793 for biotransformation under anaerobic condition. The drug concentrations were measured over 9 timepoints collected between 0 and 24 hours of incubation by liquid-chromatography-coupled mass spectrometry (LC–MS). Particulars: 2 µM.

Data set [12] is described as follows: The drug is tested on WLS-077 corresponding to human gut metagenome with ENA study accession number: PRJEB37062 and ENA sample accession number: ERS12561750 for biotransformation under anaerobic condition. The drug concentrations were measured over 9 timepoints collected between 0 and 24 hours of incubation by liquid-chromatography-coupled mass spectrometry (LC–MS). Particulars: 2 µM.

For data set [13] the following is noted: human gut metagenome, 24 h, 2 µM. The source holds these as a separate data set.
For data set [14] the following is noted: human gut metagenome, 24 h, 2 µM. This is another data set of the same source.
The conditions of data set [15]: human gut metagenome, 24 h, 2 µM. The source holds these as a separate data set.
A short description of data set [16]: The drug is tested on Z-021 corresponding to metagenome with ENA study accession number: PRJEB37062 and ENA sample accession number: ERS12561820 for biotransformation under anaerobic condition. The drug concentrations were measured over 9 timepoints collected between 0 and 24 hours of incubation by liquid-chromatography-coupled mass spectrometry (LC–MS). The following applies: 2 µM.

Data set [17] in a line: The drug is tested on WLS-086 corresponding to human gut metagenome with ENA study accession number: PRJEB37062 and ENA sample accession number: ERS12561752 for biotransformation under anaerobic condition. The drug concentrations were measured over 9 timepoints collected between 0 and 24 hours of incubation by liquid-chromatography-coupled mass spectrometry (LC–MS). Particulars: 2 µM.

The nature of data set [18]: The drug is tested on Z-016 corresponding to mouse gut metagenome with ENA study accession number: PRJEB37062 and ENA sample accession number: ERS12561815 for biotransformation under anaerobic condition. The drug concentrations were measured over 9 timepoints collected between 0 and 24 hours of incubation by liquid-chromatography-coupled mass spectrometry (LC–MS). Particulars: 2 µM.

For data set [19] the following is noted: human gut metagenome, 24 h, 2 µM. This is another data set of the same source.
Data set [20] can be described thus: The drug is tested on WLS-082 corresponding to human gut metagenome with ENA study accession number: PRJEB37062 and ENA sample accession number: ERS12561751 for biotransformation under anaerobic condition. The drug concentrations were measured over 9 timepoints collected between 0 and 24 hours of incubation by liquid-chromatography-coupled mass spectrometry (LC–MS). Particulars: 2 µM.
Also: call rule not given here.

For `CCN(CC)C(C)CN1c2ccccc2Sc2ccccc21` (stereo not given) [ETHOPROPAZINE], the “Bacterial Biotransformation” value was “Compound metabolized” in [1]; “Compound metabolized” in data set [2]; “Compound metabolized” in data set [3]; “Compound metabolized” in data set [4]; “Compound NOT metabolized” in data set [5]; “Compound NOT metabolized” in [6]. For the same compound, the “Bacterial Biotransformation” value in data set [7], in [8], in data set [9], in data set [10], in data set [11] and in [12] was “Compound metabolized” in each case. Also, the “Bacterial Biotransformation” value is “Compound metabolized” in [13]; “Compound metabolized” in data set [14]; “Compound metabolized” in data set [15]; “Compound metabolized” in data set [16]; “Compound metabolized” in data set [17]; “Compound NOT metabolized” in data set [18]. The “Bacterial Biotransformation” value in data set [19] and in [20] was “Compound metabolized” throughout.

Turning to `Cc1nc(-c2ccc(OCC(C)C)c(C#N)c2)sc1C(=O)O` [FEBUXOSTAT], the “Bacterial Biotransformation” value in data set [1] was “Compound metabolized”; in data set [2], “Compound metabolized”; in data set [3], “Compound metabolized”; in data set [4], “Compound NOT metabolized”; in [5], “Compound metabolized”; in data set [6] it was “Compound NOT metabolized”. Further, the “Bacterial Biotransformation” value in [7], in [8], in [9], in data set [10], in [11] and in [12] was “Compound metabolized” throughout. The “Bacterial Biotransformation” value in [13], in [14], in data set [15], in data set [16], in [17] and in [18] was “Compound metabolized” in each case. The “Bacterial Biotransformation” value in data set [19] and in data set [20] was “Compound metabolized” in each case.

With `CC(C)(C(=O)O)c1ccc(C(O)CCCN2CCC(C(O)(c3ccccc3)c3ccccc3)CC2)cc1` (stereo not given) [FEXOFENADINE], the “Bacterial Biotransformation” value in [1], in data set [2], in data set [3], in data set [4], in data set [5] and in data set [6] was “Compound NOT metabolized” throughout. Further, the “Bacterial Biotransformation” value in [7] is listed as “Compound NOT metabolized”; in data set [8] it was “Compound NOT metabolized”; in data set [9], “Compound NOT metabolized”; in data set [10], “Compound metabolized”; in [11], “Compound NOT metabolized”; in data set [12], “Compound NOT metabolized”. Also, the “Bacterial Biotransformation” value in data set [13], in data set [14], in [15], in data set [16], in data set [17] and in data set [18] was “Compound NOT metabolized” each time. The “Bacterial Biotransformation” value in data set [19] and in data set [20] was “Compound NOT metabolized” in each case.

Regarding `COc1ccc2c3c1O[C@H]1C[C@@H](O)C=C[C@@]31CCN(C)C2` [GALANTAMINE], the “Bacterial Biotransformation” value is reported as “Compound metabolized” in [1]; “Compound NOT metabolized” in [2]; “Compound metabolized” in [3]; “Compound NOT metabolized” in data set [4]; “Compound NOT metabolized” in data set [5]; “Compound NOT metabolized” in data set [6]. Moreover, the “Bacterial Biotransformation” value in data set [7] is reported as “Compound NOT metabolized”; in data set [8], “Compound metabolized”; in [9], “Compound NOT metabolized”; in [10], “Compound NOT metabolized”; in data set [11], “Compound NOT metabolized”; in [12], “Compound NOT metabolized”. Further, the “Bacterial Biotransformation” value is given as “Compound metabolized” in [13]; “Compound NOT metabolized” in data set [14]; “Compound NOT metabolized” in data set [15]; “Compound NOT metabolized” in data set [16]; “Compound metabolized” in data set [17]; “Compound NOT metabolized” in data set [18]. The “Bacterial Biotransformation” value in data set [19] and in data set [20] was “Compound NOT metabolized” throughout.

`Cc1ccc(S(=O)(=O)NC(=O)NN2CC3CCCC3C2)cc1` (stereo not given) [GLICLAZIDE]: the “Bacterial Biotransformation” value in [1] is recorded as “Compound metabolized”; in data set [2], “Compound metabolized”; in data set [3], “Compound metabolized”; in data set [4], “Compound metabolized”; in data set [5], “Compound NOT metabolized”; in [6], “Compound NOT metabolized”. Moreover, the “Bacterial Biotransformation” value in [7], in [8], in data set [9], in [10], in data set [11] and in [12] was “Compound metabolized” each time. The “Bacterial Biotransformation” value in [13] is “Compound metabolized”; in data set [14] it was “Compound metabolized”; in data set [15], “Compound metabolized”; in data set [16] it was “Compound NOT metabolized”; in data set [17], “Compound metabolized”; in data set [18], “Compound metabolized”. Also, the “Bacterial Biotransformation” value in data set [19] and in data set [20] was “Compound metabolized” each time.

In the case of `COC1=CC(=O)C[C@@H](C)[C@]12Oc1c(Cl)c(OC)cc(OC)c1C2=O` [GRISEOFULVIN], the “Bacterial Biotransformation” value is recorded as “Compound metabolized” in data set [1]; “Compound NOT metabolized” in [2]; “Compound metabolized” in [3]; “Compound metabolized” in data set [4]; “Compound metabolized” in data set [5]; “Compound NOT metabolized” in data set [6]. In addition, the “Bacterial Biotransformation” value in data set [7], in data set [8], in [9], in data set [10], in data set [11] and in data set [12] was “Compound metabolized” each time. Besides, the “Bacterial Biotransformation” value in [13], in data set [14], in data set [15], in data set [16], in [17] and in [18] was “Compound metabolized” in each case. Further, the “Bacterial Biotransformation” value in [19] and in [20] was “Compound metabolized” in each case.
